Consider one compound from patent EP2276483B1, “SOLID FORMS COMPRISING (+)-2-[1-(3-ETHOXY-4-METHOXYPHENYL)-2-METHYLSULFONYLETHYL]-4-ACETYLAMINOISOINDOLINE-1,3-DIONE, COMPOSITIONS THEREOF, AND USES THEREOF” (CELGENE CORPORATION, priority 2008, dated 2009).

In test [1] the test system is LPS-induced pulmonary neutrophilia. Briefly: LPS-induced lung neutrophilia ferret model. The following applies: Mustela putorius, po; conscious ferret, p.o.; read-out: Inhibition of LPS-induced neutrophilia (ED50 mg/kg). The class given is in vivo, ferrets (Mustela Pulorius Euro). The text has this: The conscious ferret model has been used to investigate anti-inflammatory, emetic and behavioral effects of PDE4 inhibitors when administered by the oral (p.o.) route. From these experiments, a therapeutic index (TI) for each PDE4 inhibitor may be determined. The TI has been calculated by dividing the threshold dose for causing emetic episodes and behavioral changes by the anti-inflammatory dose (dose that causes 50% inhibition of the LPS-induced neutrophilia).
Male ferrets (Mustela Pulorius Euro, weighing 1 - 2 kg). Ferrets were supplied either by Bury Green Farm or Misay Consultancy. Following transport, the animals were allowed to acclimatize in the holding rooms for a period of not less than seven days. The diet comprised SDS diet C pelleted food given ad lib with Whiskers™ cat food given three times per week. Water was pasteurized animal grade drinking water and was changed daily. […]
Thirty minutes after p.o. dosing with compound or vehicle control, the ferrets were placed into sealed Perspex containers and exposed to an aerosol of LPS (100 µg/ml) for 10 minutes. […] Observation continued for a period of at least 2.5 hours post p.o. dosing and emetic episodes and behavioral changes were recorded. […]
The bronchoalveolar lavage (BAL) samples were centrifuged at 1,500 rpm for 5 minutes. […] From this, the total number of neutrophils in the BAL was determined. […]

The target in test [2] is T1, PDE6 from bovine retinal rod outer segments (Bos taurus, UniProt P11541+P23439).
T1 construct: PDE6 from bovine retinal rod outer segments; from tissue; host or cells: bovine retinal rod outer segments
T1 sequence (P11541 2-856 limits assumed): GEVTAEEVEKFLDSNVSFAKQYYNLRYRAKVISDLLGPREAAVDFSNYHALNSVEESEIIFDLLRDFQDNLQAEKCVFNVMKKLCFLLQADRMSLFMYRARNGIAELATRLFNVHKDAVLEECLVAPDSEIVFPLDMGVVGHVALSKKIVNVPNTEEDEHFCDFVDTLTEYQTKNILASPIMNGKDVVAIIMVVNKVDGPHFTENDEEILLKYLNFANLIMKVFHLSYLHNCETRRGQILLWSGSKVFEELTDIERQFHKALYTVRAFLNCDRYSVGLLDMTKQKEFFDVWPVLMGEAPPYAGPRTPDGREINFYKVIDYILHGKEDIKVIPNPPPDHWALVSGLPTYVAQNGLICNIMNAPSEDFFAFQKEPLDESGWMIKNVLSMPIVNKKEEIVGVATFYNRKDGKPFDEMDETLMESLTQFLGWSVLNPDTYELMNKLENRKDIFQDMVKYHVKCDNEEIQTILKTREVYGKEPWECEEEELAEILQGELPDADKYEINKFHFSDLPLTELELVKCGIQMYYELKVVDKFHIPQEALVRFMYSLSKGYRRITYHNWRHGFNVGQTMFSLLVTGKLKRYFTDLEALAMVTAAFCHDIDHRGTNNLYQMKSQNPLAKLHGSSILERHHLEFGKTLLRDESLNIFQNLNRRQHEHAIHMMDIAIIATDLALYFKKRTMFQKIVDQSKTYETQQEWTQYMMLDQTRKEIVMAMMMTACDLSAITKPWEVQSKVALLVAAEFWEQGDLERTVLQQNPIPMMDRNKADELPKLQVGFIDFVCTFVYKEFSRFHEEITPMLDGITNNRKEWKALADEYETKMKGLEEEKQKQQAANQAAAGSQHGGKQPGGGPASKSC
T1 sequence (P23439 2-850 limits assumed): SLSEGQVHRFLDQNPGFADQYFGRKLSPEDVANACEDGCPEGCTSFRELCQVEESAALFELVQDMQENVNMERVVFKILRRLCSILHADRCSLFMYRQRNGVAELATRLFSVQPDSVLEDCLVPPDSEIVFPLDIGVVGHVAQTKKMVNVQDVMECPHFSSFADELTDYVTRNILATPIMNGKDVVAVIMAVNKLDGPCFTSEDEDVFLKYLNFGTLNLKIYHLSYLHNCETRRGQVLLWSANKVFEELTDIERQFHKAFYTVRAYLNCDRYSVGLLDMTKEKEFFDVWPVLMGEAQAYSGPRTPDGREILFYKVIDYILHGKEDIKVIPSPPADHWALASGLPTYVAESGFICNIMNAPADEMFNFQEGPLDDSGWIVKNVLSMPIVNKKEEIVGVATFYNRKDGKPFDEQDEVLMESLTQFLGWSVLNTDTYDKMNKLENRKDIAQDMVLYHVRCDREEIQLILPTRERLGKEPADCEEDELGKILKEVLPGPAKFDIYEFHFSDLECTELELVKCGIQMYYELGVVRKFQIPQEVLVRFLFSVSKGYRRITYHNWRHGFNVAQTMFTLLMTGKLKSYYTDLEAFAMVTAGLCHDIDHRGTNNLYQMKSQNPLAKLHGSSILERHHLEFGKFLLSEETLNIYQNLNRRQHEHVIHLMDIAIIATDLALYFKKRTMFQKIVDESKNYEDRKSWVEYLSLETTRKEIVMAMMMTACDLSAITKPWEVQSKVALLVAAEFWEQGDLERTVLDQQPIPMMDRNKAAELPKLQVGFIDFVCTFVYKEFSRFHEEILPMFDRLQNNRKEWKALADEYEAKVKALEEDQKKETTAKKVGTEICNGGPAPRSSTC
In words: PDE6 enzyme assay. It is filed as biochemical.

`CCOc1cc(C(CS(C)(=O)=O)N2C(=O)c3cccc(NC(C)=O)c3C2=O)ccc1OC` (single isomer, unassigned; (+)) [Compound A, (+)-2-[1-(3-ethoxy-4-methoxyphenyl)-2-methylsulfonylethyl]-4-acetylaminoisoindoline-1,3-dione]: the ED50 in test [1] is 0.8 mg/kg. Also, the “PDE Specificity Ratio PDE4/PDE6” value in test [2] (from above data) is above 40000 fold. Besides, the inhibition at 10 µM in test [2] (read-out: PDE6 (% inhib at 10 µM)) is -6%.
